# Read-outs that look alike come from different tables or passages of the source.
# Columns and labels:
# human liver cathepsin L = biological target: T1, human liver cathepsin L (Homo sapiens, UniProt P07711); assay: Cathepsin L assay, IC50 determination; assay type: biochemical
# T1 construct: 8.7 ng/mL human liver cathepsin L (Calbiochem 219402); purchased Calbiochem 219402; host or cells: human liver
# In short: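 Enzyme (300 pM) pre-activated for 30 min in 20 mM sodium acetate, 1 mM EDTA, 5 mM cysteine, pH 5.5, then incubated 1 h at room temperature with 1 microM Z-Phe-Arg-AMC and compound. Fluorescent read-out on a microplate reader; IC50 in triplicate.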
# zebrafish = assay: Zebrafish live organism toxicity assay; settings: at 100 μM
# human cathepsin V = biological target: T2, human cathepsin V (Homo sapiens, UniProt O60911); assay: Selectivity assay, cathepsin V; assay type: biochemical
# T2 construct: purchased Calbiochem 219467
# Protocol: Compound No. 1 was assayed for inhibition against papain and cathepsins B, G, K, S, and V. Papain from Carica papaya (Calbiochem 5125, 11 ng/mL), human cathepsin K (Calbiochem 342001, 35 ng/mL), human spleen cathepsin S (Calbiochem 219344, 40 ng/mL), and human cathepsin V (Calbiochem 219467, 39 ng/ml) were assayed using Z-Phe-Arg-AMC substrate at 20 μM, 20 μM, 15 μM, and 1 μM, respectively. Human liver cathepsin B (Calbiochem 219362, 65 ng/mL) was assayed using 15 μM Z-Arg-Arg-AMC substrate (Bachem I-1135). Human neutrophil cathepsin G (Calbiochem 219373, 4.2 μg/mL) was assayed using 15 μM Suc-Ala-Ala-Pro-Phe-AMC substrate (Sigma S9761). All reactions were performed in 20 mM sodium acetate buffer containing 5 mM cysteine and 1 mM EDTA, pH 5.5. Reaction progress was monitored using the Envision microplate reader. IC50 values were measured in triplicate.
# [1] = Stability in DMSO and cathepsin L assay buffer; assay type: physicochemical
# Excerpt: Some variability in IC50 values determined for Compound (iii) prompted us to explore the stability of both Compound No. 1 and Compound (iii) in solvents relevant to the bioassay.
# human cathepsin L = human cathepsin L (Homo sapiens, UniProt P07711); assay: Reversibility, preincubation/dilution assay; assay type: biochemical; parameters: 8.7 ng/mL human liver cathepsin L (Calbiochem 219402); purchased Calbiochem 219402; host or cells: human liver
# Protocol: This mixture was then diluted 100-fold in a Corning 3650 96-well plate with assay buffer containing 1 μM Z-Phe-Arg-AMC to a final volume of 200 μL. A rapidly reversible inhibitor should dissociate from the enzyme to restore approximately >90% of enzymatic activity. Fluorescence intensities of the 200 μL reaction wells were monitored continuously for AMC hydrolysis on the Envision plate reader.
# The mechanism of inhibition, to determine whether the compound acted as a rapidly reversible, slowly reversible, or irreversible inhibitor, was evaluated using a preincubation/dilution assay (Copeland, 2005, Evaluation of Enzyme Inhibitors in Drug Discovery: A Guide for Medicinal Chemists and Pharmacologists, J. Wiley, Hoboken, N.J.). […] After 8820 s, the rate of product formation for the 4 hour preincubated reaction was 4.7 times greater than the initial rate of product formation, showing that the inhibitor was being released from the enzyme-inhibitor complex and enzymatic activity was indeed recovering.
# [2] = test system: Leishmania major promastigotes; assay: Leishmaniasis assay; assay type: cell-based; settings: read-out: IC50 against Leishmania major promastigotes
# Protocol: Five thousand Leishmania major promastigotes were plated per well in a 384-well microtiter plate in a 20 μL volume of promastigote growth medium. Promastigotes were treated with a concentration range from 0 μM to 50 μM of Compound No. 1 for 44 hrs. Five pL Cell-Titer-Blue™ were added per well and incubated for 4 hrs. Relative fluorescence units (A560/A590) were captured on a SpectraMax M5 microtiter plate reader. DMSO concentrations were held constant at 0.5%.
# Human liver cathepsin B = biological target: T3, Human liver cathepsin B (Homo sapiens, UniProt P07858); assay: Cathepsin B assay, IC50 determination; assay type: biochemical
# T3 construct: Human liver cathepsin B (Calbiochem 219362, 65 ng/mL); purchased Calbiochem 219362; host or cells: human liver
# In short: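 Spleen cathepsin S (40 ng/mL) with 15 microM Z-Phe-Arg-AMC and liver cathepsin B (65 ng/mL) with 15 microM Z-Arg-Arg-AMC, in 20 mM sodium acetate, 1 mM EDTA, 5 mM cysteine, pH 5.5. AMC fluorescence release monitored; IC50 measured in triplicate.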
# T2 sequence (O60911 114-334): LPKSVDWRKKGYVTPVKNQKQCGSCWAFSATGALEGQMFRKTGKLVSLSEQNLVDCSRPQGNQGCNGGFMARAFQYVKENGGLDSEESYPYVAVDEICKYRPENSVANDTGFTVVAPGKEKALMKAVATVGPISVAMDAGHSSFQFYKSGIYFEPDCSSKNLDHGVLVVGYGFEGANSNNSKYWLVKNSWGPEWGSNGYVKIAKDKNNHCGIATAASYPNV
# human cathepsin L, sequence (P07711 114-288 limits assumed): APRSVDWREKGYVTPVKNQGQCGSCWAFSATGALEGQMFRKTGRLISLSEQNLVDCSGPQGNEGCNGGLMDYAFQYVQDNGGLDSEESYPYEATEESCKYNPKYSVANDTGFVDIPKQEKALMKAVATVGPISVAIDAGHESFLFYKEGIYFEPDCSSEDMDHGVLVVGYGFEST
# human cathepsin L, sequence (P07711 292-333 limits assumed): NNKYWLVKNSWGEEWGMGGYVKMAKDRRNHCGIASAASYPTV
# T1 sequence (P07711 114-288 limits assumed): as the sequence (P07711 114-288 limits assumed) above
# T1 sequence (P07711 292-333 limits assumed): as the sequence (P07711 292-333 limits assumed) above
smiles,measurement,setting,value
CCc1ccccc1NC(=O)CSC(=O)NNC(=O)[C@H](Cc1c[nH]c2ccccc12)NC(=O)OC(C)(C)C [Compound No. 1],Selectivity Index @ 10 min,"human liver cathepsin L; Cathepsin L, human liver, 10 min",1
same,IC50,"human liver cathepsin L; Cathepsin L, human liver, no preincubation, 30 min, read-out: IC50 @ 30 min",0.075 ± 0.005 µM
same,IC50,"human liver cathepsin L; Cathepsin L, human liver, no preincubation, 60 min, read-out: IC50 @ 60 min",0.056 ± 0.004 µM
same,IC50,"human liver cathepsin L; Cathepsin L, human liver, no preincubation, 90 min, read-out: IC50 @ 90 min",0.05 ± 0.003 µM
same,Selectivity Index @ 30 min,"human liver cathepsin L; Cathepsin L, 30 min",1
same,Selectivity Index @ 60 min,"human liver cathepsin L; Cathepsin L, 60 min",1
same,Selectivity Index @ 90 min,"human liver cathepsin L; Cathepsin L, 90 min",1
same,Selectivity Index,"human liver cathepsin L; Cathepsin L, IC50 protease / IC50 cathepsin L, over 10-90 min",1
same,IC50,"human liver cathepsin L; IC50 @ 10 min, Cathepsin L, human liver, no preincubation, 10 min",0.155 ± 0.012 µM
same,IC50,"human liver cathepsin L; Table 1, read-out: IC50 Cat L",0.056 µM
same,IC50,"human liver cathepsin L; Table 17, n = 3, C, S or O at the sulfur position, read-out: Cathepsin L inhibitory activity IC50",0.056 ± 0.004 µM
same,IC50,"human liver cathepsin L; no preincubation of enzyme and inhibitor, read-out: IC50 against cathepsin L (no preincubation)",0.056 µM
same,toxicity to zebrafish,zebrafish,lack of toxicity
same,IC50,human cathepsin V,1.01 ± 0.142 µM
same,Selectivity Index @ 10 min,"human cathepsin V; Cathepsin V vs cathepsin L, 10 min",7
same,Selectivity Index @ 30 min,"human cathepsin V; Cathepsin V vs cathepsin L, 30 min",9
same,Selectivity Index @ 60 min,"human cathepsin V; Cathepsin V vs cathepsin L, 60 min",11
same,Selectivity Index @ 90 min,"human cathepsin V; Cathepsin V vs cathepsin L, 90 min",11
same,Selectivity Index,"human cathepsin V; Cathepsin V vs cathepsin L, over 10-90 min",7-11
same,IC50,"human cathepsin V; Cathepsin V, no preincubation, 30 min, read-out: IC50 @ 30 min",0.688 ± 0.039 µM
same,IC50,"human cathepsin V; Cathepsin V, no preincubation, 60 min, read-out: IC50 @ 60 min",0.618 ± 0.035 µM
same,IC50,"human cathepsin V; Cathepsin V, no preincubation, 90 min, read-out: IC50 @ 90 min",0.576 ± 0.024 µM
same,stability in DMSO,"[1]; DMSO, room temperature",completely stable
same,stability in cathepsin L assay buffer,"[1]; NaOAc (20 mM), pH 5.5, EDTA (1 mM), cysteine (5 mM)",completely stable
same,enzymatic activity returned after 100-fold dilution,"human cathepsin L; 1 hour preincubation at 75 nM, 6000 s into the reaction",approximately 11%
same,rate of product formation relative to initial rate,"human cathepsin L; 4 hour preincubated reaction, after 8820 s",4.7 times
same,reaction inhibited immediately after addition of substrate,human cathepsin L; 4 hr preincubated enzyme-inhibitor,99.8%
same,mechanism of inhibition (reversibility),human cathepsin L; preincubation/dilution assay,very slowly reversible inhibitor
same,IC50,[2],12.5 ± 0.6 µM
same,Selectivity Index @ 10 min,"Human liver cathepsin B; Cathepsin B vs cathepsin L, 10 min",48
same,Selectivity Index @ 30 min,"Human liver cathepsin B; Cathepsin B vs cathepsin L, 30 min",40
same,Selectivity Index @ 60 min,"Human liver cathepsin B; Cathepsin B vs cathepsin L, 60 min",45
same,Selectivity Index @ 90 min,"Human liver cathepsin B; Cathepsin B vs cathepsin L, 90 min",50
same,Selectivity Index,"Human liver cathepsin B; Cathepsin B vs cathepsin L, over 10-90 min",40-50
same,IC50,"Human liver cathepsin B; Cathepsin B, no preincubation, 30 min, read-out: IC50 @ 30 min",2.98 ± 0.295 µM
same,IC50,"Human liver cathepsin B; Cathepsin B, no preincubation, 60 min, read-out: IC50 @ 60 min",2.53 ± 0.073 µM
same,IC50,"Human liver cathepsin B; Cathepsin B, no preincubation, 90 min, read-out: IC50 @ 90 min",2.51 ± 0.139 µM
same,IC50,"Human liver cathepsin B; IC50 @ 10 min, Cathepsin B, human liver, no preincubation, 10 min",7.49 ± 0.693 µM
same,IC50,"Human liver cathepsin B; Table 1, read-out: IC50 Cat B",4.45 µM
